The values below come from ChEMBL document CHEMBL5291721, “A preclinical secondary pharmacology resource illuminates target-adverse drug reaction associations of marketed drugs” (Nat Commun, 2023).

Experiment [1] concerns the target T1, Muscarinic acetylcholine receptor M2 (Homo sapiens, UniProt P08172).
T1 sequence (P08172 whole entry): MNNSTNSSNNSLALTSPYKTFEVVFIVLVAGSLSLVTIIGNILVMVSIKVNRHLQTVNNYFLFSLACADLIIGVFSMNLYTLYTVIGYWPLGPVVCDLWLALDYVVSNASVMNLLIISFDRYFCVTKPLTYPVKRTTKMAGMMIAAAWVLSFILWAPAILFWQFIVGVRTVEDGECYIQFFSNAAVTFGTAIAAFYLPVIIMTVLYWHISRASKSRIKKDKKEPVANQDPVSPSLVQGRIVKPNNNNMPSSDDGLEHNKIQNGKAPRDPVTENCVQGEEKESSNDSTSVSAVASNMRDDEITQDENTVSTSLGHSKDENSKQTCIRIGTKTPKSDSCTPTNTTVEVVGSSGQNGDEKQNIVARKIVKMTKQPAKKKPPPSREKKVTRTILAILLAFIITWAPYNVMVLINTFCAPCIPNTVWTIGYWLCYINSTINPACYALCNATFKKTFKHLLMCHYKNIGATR
It counts as functional, cell-based.

Experiment [2] has as its target T1, Muscarinic acetylcholine receptor M2. The class given is functional, cell-based. The source holds these as a separate data set.
The target in experiment [3] is cGMP-inhibited 3',5'-cyclic phosphodiesterase 3A (Homo sapiens, UniProt Q14432). It counts as functional.
The target in experiment [4] is Delta-type opioid receptor (Homo sapiens, UniProt P41143).
Experiment [5] concerns the target T2, Alpha-2A adrenergic receptor (Homo sapiens, UniProt P08913).
T2 sequence (P08913 whole entry): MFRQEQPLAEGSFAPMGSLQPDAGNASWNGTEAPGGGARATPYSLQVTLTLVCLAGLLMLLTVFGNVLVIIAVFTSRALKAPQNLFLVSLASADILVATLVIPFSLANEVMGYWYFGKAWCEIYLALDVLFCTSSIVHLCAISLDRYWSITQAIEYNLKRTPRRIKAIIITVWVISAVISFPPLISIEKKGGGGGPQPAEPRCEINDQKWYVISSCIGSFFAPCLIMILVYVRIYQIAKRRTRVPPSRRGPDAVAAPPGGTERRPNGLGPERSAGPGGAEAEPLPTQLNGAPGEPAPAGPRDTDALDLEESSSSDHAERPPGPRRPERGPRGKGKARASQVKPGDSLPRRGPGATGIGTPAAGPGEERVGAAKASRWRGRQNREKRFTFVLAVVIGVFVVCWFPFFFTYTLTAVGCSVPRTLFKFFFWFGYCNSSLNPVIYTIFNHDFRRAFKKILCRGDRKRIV
It counts as functional, cell-based.

In experiment [6] the target is Motilin receptor (Homo sapiens, UniProt O43193).
In experiment [7] the target is T3, Amine oxidase [flavin-containing] A (Homo sapiens, UniProt P21397).
T3 sequence (P21397 whole entry): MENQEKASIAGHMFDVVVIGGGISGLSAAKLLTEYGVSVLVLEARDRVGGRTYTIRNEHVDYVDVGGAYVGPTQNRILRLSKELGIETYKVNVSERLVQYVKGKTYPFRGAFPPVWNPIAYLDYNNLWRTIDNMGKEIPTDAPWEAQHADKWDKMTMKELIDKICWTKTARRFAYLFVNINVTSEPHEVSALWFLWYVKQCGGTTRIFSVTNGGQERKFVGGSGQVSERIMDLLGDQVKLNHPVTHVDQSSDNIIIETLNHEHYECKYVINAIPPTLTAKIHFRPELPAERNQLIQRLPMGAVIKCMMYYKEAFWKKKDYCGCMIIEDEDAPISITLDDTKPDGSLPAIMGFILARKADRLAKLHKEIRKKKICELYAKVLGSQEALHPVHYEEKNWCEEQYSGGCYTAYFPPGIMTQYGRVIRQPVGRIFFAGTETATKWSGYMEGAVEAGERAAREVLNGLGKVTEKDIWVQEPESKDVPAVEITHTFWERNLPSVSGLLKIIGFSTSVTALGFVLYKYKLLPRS
It counts as functional.

In experiment [8] the target is T4, Equilibrative nucleoside transporter 1 (Homo sapiens, UniProt Q99808).
T4 sequence (Q99808 whole entry): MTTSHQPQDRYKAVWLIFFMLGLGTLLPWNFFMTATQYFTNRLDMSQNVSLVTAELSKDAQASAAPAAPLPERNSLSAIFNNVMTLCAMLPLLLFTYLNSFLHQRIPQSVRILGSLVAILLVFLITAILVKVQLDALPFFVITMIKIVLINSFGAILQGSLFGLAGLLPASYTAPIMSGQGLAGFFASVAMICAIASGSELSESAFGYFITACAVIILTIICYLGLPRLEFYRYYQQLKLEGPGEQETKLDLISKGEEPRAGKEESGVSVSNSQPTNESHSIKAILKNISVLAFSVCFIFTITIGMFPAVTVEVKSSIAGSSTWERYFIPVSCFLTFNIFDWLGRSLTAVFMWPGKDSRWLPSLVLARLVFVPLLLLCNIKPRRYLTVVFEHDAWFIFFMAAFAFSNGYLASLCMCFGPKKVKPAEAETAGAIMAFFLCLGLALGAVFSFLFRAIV

The target in experiment [9] is T5, Estrogen receptor (Homo sapiens, UniProt P03372).
T5 sequence (P03372 whole entry): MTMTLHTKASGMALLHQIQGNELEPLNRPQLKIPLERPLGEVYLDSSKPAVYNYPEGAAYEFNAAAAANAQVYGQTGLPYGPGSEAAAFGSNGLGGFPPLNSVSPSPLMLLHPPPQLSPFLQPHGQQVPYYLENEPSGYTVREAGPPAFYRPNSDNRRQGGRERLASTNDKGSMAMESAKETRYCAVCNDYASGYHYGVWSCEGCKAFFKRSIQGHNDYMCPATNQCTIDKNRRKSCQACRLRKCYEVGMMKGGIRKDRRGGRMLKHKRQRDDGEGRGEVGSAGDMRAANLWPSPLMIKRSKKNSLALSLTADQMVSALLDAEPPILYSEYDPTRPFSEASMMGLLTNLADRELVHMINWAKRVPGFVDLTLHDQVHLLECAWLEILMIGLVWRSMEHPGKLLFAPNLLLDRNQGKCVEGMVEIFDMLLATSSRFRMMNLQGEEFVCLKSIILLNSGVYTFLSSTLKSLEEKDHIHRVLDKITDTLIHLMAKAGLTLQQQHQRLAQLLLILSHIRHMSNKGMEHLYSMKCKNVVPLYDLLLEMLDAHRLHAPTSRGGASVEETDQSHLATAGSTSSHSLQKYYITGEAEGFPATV

Experiment [10] deals with Sodium-dependent dopamine transporter (Homo sapiens, UniProt Q01959).
For experiment [11], the target named is D(3) dopamine receptor (Homo sapiens, UniProt P35462).

Molecules are shown by their SMILES.
Further: assay procedure not described here.

Sequence of D(3) dopamine receptor (P35462 whole entry): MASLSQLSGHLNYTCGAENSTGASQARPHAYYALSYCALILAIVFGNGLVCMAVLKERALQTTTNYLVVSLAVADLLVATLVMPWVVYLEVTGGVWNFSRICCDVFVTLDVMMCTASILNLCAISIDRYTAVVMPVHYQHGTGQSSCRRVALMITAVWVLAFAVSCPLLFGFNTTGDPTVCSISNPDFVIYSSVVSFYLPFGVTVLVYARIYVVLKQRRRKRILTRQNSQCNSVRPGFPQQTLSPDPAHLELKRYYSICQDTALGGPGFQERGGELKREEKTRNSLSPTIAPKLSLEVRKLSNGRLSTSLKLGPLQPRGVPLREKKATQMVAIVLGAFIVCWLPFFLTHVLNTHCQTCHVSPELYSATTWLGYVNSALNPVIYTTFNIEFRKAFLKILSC
Sequence of Motilin receptor (O43193 whole entry): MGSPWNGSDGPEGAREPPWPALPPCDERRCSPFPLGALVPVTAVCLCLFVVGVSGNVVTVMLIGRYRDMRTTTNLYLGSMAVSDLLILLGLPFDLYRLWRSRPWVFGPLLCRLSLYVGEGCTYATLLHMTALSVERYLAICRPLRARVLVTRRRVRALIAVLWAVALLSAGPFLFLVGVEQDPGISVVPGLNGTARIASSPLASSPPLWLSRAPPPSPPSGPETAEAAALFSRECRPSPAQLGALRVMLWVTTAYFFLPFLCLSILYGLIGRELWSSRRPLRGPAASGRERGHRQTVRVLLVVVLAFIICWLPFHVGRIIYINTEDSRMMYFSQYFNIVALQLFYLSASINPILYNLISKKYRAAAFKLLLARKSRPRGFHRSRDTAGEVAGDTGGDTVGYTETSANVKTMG
Sequence of cGMP-inhibited 3',5'-cyclic phosphodiesterase 3A (Q14432 whole entry): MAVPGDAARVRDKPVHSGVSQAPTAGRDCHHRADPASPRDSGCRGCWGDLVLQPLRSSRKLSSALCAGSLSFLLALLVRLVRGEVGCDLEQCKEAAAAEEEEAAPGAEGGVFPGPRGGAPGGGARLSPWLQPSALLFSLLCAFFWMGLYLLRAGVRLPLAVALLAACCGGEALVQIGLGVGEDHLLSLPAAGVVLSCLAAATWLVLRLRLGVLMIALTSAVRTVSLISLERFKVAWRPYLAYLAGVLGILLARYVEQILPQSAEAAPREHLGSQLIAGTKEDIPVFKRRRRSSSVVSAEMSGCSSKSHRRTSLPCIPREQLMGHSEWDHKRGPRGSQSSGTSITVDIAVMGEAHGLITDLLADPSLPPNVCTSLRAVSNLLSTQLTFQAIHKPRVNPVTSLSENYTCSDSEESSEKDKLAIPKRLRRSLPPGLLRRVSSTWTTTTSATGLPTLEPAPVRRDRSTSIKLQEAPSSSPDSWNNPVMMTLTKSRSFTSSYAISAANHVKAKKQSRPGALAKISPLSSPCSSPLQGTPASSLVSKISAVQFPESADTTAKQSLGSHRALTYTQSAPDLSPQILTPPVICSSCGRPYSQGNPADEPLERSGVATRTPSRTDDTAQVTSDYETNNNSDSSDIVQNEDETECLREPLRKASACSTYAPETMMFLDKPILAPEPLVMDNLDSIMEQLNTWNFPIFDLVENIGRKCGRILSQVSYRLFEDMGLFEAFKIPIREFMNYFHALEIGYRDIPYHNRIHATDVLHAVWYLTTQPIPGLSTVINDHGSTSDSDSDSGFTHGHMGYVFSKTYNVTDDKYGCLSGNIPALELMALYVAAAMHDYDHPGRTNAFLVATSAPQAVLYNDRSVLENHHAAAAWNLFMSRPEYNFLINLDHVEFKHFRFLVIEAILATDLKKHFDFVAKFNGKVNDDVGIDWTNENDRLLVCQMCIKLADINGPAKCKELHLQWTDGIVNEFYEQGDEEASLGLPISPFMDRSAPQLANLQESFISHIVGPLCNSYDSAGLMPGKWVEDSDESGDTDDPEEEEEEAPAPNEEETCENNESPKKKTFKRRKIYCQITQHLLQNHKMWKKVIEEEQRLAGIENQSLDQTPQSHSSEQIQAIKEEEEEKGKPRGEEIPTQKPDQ
Sequence of Sodium-dependent dopamine transporter (Q01959 whole entry): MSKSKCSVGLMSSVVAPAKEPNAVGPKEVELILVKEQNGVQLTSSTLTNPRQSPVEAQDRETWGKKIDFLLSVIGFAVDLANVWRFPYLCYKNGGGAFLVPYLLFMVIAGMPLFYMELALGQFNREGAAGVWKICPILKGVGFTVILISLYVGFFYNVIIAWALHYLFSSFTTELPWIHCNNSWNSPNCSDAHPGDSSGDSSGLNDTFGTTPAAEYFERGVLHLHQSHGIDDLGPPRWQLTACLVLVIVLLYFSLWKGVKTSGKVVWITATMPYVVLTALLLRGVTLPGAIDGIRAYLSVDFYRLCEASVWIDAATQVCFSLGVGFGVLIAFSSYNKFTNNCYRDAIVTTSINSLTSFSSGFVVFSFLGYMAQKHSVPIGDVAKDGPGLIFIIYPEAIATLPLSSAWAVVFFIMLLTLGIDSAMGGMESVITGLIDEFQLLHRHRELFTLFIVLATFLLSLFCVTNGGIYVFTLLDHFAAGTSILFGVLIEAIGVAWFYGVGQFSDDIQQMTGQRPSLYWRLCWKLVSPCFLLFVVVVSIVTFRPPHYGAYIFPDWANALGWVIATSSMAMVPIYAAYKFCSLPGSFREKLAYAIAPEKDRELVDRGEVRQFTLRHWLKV
Sequence of Delta-type opioid receptor (P41143 whole entry): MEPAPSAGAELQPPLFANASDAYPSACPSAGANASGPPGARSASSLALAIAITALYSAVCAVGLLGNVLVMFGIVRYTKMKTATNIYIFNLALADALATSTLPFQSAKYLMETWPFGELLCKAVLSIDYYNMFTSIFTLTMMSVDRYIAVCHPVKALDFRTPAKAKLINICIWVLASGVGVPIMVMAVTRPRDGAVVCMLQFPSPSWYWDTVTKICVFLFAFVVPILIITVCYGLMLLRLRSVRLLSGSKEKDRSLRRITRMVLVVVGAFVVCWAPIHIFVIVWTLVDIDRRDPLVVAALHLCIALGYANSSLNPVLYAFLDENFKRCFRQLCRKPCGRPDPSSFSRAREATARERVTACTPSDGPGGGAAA

Regarding `COc1ccccc1N1CCN(CCCNc2cc(=O)n(C)c(=O)n2C)CC1`, the AC50 (commonly the concentration at which the activity in the assay is half-maximal) in experiment [1] is more than 30 µM; in [2], more than 30 µM; in experiment [3], 9.5 µM; in experiment [4] it was more than 30 µM; in [5] it was more than 30 µM; in experiment [6], more than 30 µM. In addition, the AC50 was more than 30 µM in [7]; more than 30 µM in [8]; more than 30 µM in experiment [9]; more than 30 µM in [10]; 1.4 µM in [11].
`CCOC(=O)[C@H](CCc1ccccc1)N[C@@H](C)C(=O)N1C(=O)N(C)C[C@H]1C(=O)O`: the AC50 in experiment [1], in [2], in [3], in [4], in experiment [5] and in [6] was more than 30 µM throughout. For the same compound, the AC50 in [7], in [8], in experiment [9], in [10] and in experiment [11] was more than 30 µM in each case.
Regarding `CC=CC(=O)N(CC)c1ccccc1C`, the AC50 is more than 10 µM in experiment [1]; more than 10 µM in experiment [2]; more than 30 µM in experiment [3]; more than 30 µM in [4]; more than 10 µM in experiment [5]; more than 10 µM in experiment [6]. The AC50 in experiment [7] was more than 10 µM; in experiment [8], more than 10 µM; in experiment [9] it was more than 10 µM; in experiment [10], more than 10 µM; in [11], more than 30 µM.
As to `NCC[C@H](O)C(=O)N[C@@H]1C[C@H](N)[C@@H](O[C@H]2O[C@H](CN)[C@@H](O)[C@H](O)[C@H]2O)[C@H](O)[C@H]1O[C@H]1O[C@H](CO)[C@@H](O)[C@H](N)[C@H]1O` [AMIKACIN], the AC50 in [1] was more than 10 µM; in [2] it was more than 10 µM; in experiment [3], more than 30 µM; in experiment [4] it was more than 30 µM; in [5], more than 10 µM; in experiment [6], more than 10 µM. For the same compound, the AC50 in experiment [7] is more than 10 µM; in experiment [8], more than 10 µM; in [9] it was more than 10 µM; in [10], more than 10 µM; in [11] it was more than 30 µM.
With `O=C(O)CCCCCCNC1c2ccccc2CCc2ccccc21` [AMINEPTINE], the AC50 in experiment [1], in experiment [2], in experiment [3], in experiment [4], in [5] and in [6] was more than 30 µM in each case. The AC50 in experiment [7] was more than 30 µM; in experiment [8] it was more than 30 µM; in experiment [9], more than 30 µM; in experiment [10], 1.5 µM; in [11], more than 30 µM.
Take `COc1ccccc1OCCNCC(O)c1ccc(C)c(S(N)(=O)=O)c1` (stereo not given) [AMOSULALOL]: the AC50 in experiment [1] is more than 30 µM; in experiment [2], more than 30 µM; in experiment [3], more than 10 µM; in [4], more than 30 µM; in [5], more than 30 µM; in experiment [6] it was more than 30 µM. In addition, the AC50 in experiment [7] is more than 30 µM; in [8] it was more than 30 µM; in experiment [9], more than 30 µM; in experiment [10], more than 30 µM; in [11] it was 0.12 µM.
On to `CCOC(=O)OC(C)OC1=C(C(=O)Nc2ccccn2)N(C)S(=O)(=O)c2ccccc21` (stereo not given) [AMPIROXICAM], for which the AC50 in experiment [1], in experiment [2], in experiment [3], in [4], in experiment [5] and in experiment [6] was more than 30 µM each time. The AC50 in experiment [7], in experiment [8], in [9], in experiment [10] and in experiment [11] was more than 30 µM each time.
For `COC(=O)C1=C(C)NC(C)=C(C(=O)OC2CCCN(Cc3ccccc3)C2)C1c1cccc([N+](=O)[O-])c1` (stereo not given) [BENIDIPINE], the AC50 in experiment [1] was more than 30 µM; in [2] it was more than 30 µM; in [3], 4.2 µM; in experiment [4] it was more than 30 µM; in [5], more than 30 µM; in [6] it was 3.5 µM. Moreover, the AC50 was more than 30 µM in experiment [7]; 8.2 µM in experiment [8]; more than 30 µM in [9]; 12 µM in experiment [10]; 16 µM in [11].
For the compound `C=CCC1(CC(C)C)C(=O)NC(=O)NC1=O` [BUTALBITAL], the AC50 in experiment [1] is more than 10 µM; in experiment [2], more than 10 µM; in experiment [3], more than 30 µM; in [4], more than 30 µM; in experiment [5] it was more than 10 µM; in [6], more than 10 µM. The AC50 in [7] is more than 30 µM; in experiment [8] it was more than 10 µM; in experiment [9], more than 10 µM; in experiment [10], more than 10 µM; in experiment [11], more than 30 µM.
Take `O=C(O)C1=C(CSc2nnnn2CS(=O)(=O)O)CS[C@@H]2[C@H](NC(=O)[C@H](O)c3ccccc3)C(=O)N12` [CEFONICID]: the AC50 in experiment [1], in experiment [2], in experiment [3], in experiment [4], in experiment [5] and in experiment [6] was more than 30 µM in each case. The AC50 in [7], in experiment [8], in experiment [9], in experiment [10] and in [11] was more than 30 µM throughout.
Take `COc1ccc2c3c1O[C@H]1C(=O)CC[C@@]4(O)[C@@H](C2)N(C)CC[C@]314` [OXYCODONE]: the AC50 in experiment [1], in experiment [2], in experiment [3], in [5], in experiment [6] and in [7] was more than 30 µM throughout. In addition, the AC50 in [8], in experiment [9], in [10] and in experiment [11] was more than 30 µM in each case.
